Data from US12605353B2, “PDIA4 inhibitors and use thereof for inhibiting β-cell pathogenesis and treating diabetes” (Academia Sinica, priority 2019, dated 2026).
Like-named read-outs stand apart in the source and are kept apart here.

Legend:
PDIA4 = target: T1, PDIA4 (Homo sapiens, UniProt P13667); assay: biochemical;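 also: enzymatic activity of PDIA4 read as absorbance at 595 nm, inhibition given as percent decrease relative to vehicle-treated control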
T1 sequence (P13667 21-645): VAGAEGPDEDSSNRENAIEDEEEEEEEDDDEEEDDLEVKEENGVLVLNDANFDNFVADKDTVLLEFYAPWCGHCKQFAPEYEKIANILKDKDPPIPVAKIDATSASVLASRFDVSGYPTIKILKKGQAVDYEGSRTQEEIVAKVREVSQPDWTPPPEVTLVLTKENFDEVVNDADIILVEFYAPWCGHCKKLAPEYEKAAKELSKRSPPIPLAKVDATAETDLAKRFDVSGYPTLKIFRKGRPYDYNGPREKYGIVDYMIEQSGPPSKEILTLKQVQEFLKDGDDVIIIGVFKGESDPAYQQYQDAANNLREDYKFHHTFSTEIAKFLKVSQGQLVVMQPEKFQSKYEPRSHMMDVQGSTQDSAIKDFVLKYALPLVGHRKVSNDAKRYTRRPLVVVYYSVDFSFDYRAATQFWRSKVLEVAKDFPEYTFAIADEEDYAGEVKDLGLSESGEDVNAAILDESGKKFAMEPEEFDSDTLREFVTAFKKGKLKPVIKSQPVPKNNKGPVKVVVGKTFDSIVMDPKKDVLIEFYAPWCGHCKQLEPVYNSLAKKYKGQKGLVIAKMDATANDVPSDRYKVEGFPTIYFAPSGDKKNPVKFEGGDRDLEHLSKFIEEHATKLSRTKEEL
Method: Recombinant PDI proteins PDIA4 (23 pM) was incubated with insulin (0.2 mM) and DTT (0.1 mM) in the presence of vehicle and compounds at the indicated doses for 30 min at 25° C. The mixture was, measured using a SpectraMax i3x reader at 595 nm based on the manufacturer's instructions (Molecular device, CA, USA). Inhibition of the enzymatic activity PDIA4 is calculated by the formula, 100%×(OD595 of vehicle−OD595 of CP)/(OD595 of vehicle) as published previously.

[1] = Cell viability test (WST-1) in Min6 cells; type: cell-based, mouse; settings: mouse
Method: (§1) (A) Effect of drug candidates on insulin secretion in β-cells. Min6 cells were incubated in serum-free oxygen-saturated Krebs-Ringer bicarbonate (KRB) buffer containing high glucose (16.7 mM), CCF642 and drug candidates for 30 min. The supernatants were collected for insulin ELISA assay. (B) Min6 cells were incubated with PBS, CCF642 and drug candidates, respectively, for 24 h. Following PBS washing, WST-1 was added into each well for additional 20 min incubation.
Min6 cells were cultured at 37° C. in complete medium. Cell cytotoxicity was determined using WST-1 (4-[3-(4-Iodophenyl)-2-(4-nitrophenyl)-2H-5-tetrazolio]-1,3-benzene Disulfonate) according to the manutkturet's guidelines. Briefly, the cells were grown in a […] containing complete medium in the presence of the indicated compounds for 24 h. Following PBS washing, WST-1 was added into each well for additional 20 min incubation. After removing the medium, the cells in the plate were measured with a SpectraMax i3x reader at 450 nm.

Min6 cells = assay: Glucose-stimulated insulin secretion in Min6 cells (insulin ELISA); type: cell-based, mouse; settings: for insulin secretion in β-cells, in words: Min6 β-cells
Method: as §1
Min6 cells were grown in complete Dulbecco's modified Eagle medium (DMEM) medium containing 10% fetal bovine serum, 100 units/ml penicillin and 100 µg/ml streptomycin in a 5% CO2 incubator in the presence of 3.3 mM glucose unless indicated otherwise. Min6 cells were pre-incubated in serum-free oxygen-saturated Krebs-Ringer bicarbonate (KRB) buffer containing 3.3 mM glucose at 37° C. for 30 min. The cells (7.5×10^4) were then incubated with KRB buffer containing high glucose (16.7 mM) or low glucose (3.3 mM) for an additional 30 min. The supernatants were collected for insulin ELISA assay.

[2] = Table 5, 24 h, WST-1, read-out: CC50
[3] = Min6, a mouse β-cells, read-out: EC50 values, insulin-releasing action
[4] = Mus musculus, 0.5 h, Table 5, insulin secretion, Min6 cells, high glucose (16.7 mM), 30 min, read-out: EC50

SMILES | IC50 (PDIA4) [µM] | other results
COC(=O)c1cc(OC)c(OC)c(OC)c1N [compound 19, methyl 2-amino-3,4,5-trimethoxybenzoate] | > 1000 | 
C#CC(=O)Nc1cc(OC)c(OCCCN(C(=O)C#C)C(=O)Cc2cccc(Cl)c2)cc1C(=O)OC [58r, methyl 5-(3-(N-(2-(3-chlorophenyl)acetyl)propiolamido)propoxy)-4-methoxy-2-propiolamidobenzoate] | 1.6 | 
C#CC(=O)Nc1cc(OC)c(OCCCN(C(=O)C#C)C(=O)Cc2cccc(C(F)(F)F)c2)cc1C(=O)OC [58t, methyl 4-methoxy-2-propiolamido-5-(3-(N-(2-(3-(trifluoromethyl)phenyl)acetyl)propiolamido)propoxy)benzoate] | 0.8 | CC50 at 24 h [1, 2]: > 100 µM; CC50 at 24 h ([1]; read-out: CC50 values): 64.9 µM; EC50 (Min6 cells; [3]): 20 nM; insulin secretion in β-cells, in words (Min6 cells): could augment insulin secretion; EC50 (Min6 cells; [4]): 30 nM; SI (CC50/EC50) (Min6 cells; Table 5, Min6 cells): >3333
COC(=O)c1cc(OCCCN)c(OC)cc1[N+](=O)[O-] [compound 55, methyl 5-(3-aminopropoxy)-4-methoxy-2-nitrobenzoate] | > 1000 | 
C#CC(=O)OC(=O)c1cc(OCc2ccccc2)c(OC)cc1N [compound 16, 2-amino-5-(benzyloxy)-4-methoxybenzoic propiolic anhydride] | 13.3 | 
C#CC(=O)Nc1cc(OC)c(OCCCN(C(=O)C#C)C(=O)Cc2ccccc2)cc1C(=O)OC [58i, methyl 4-methoxy-5-(3-(N-(2-phenylacetyl)propiolamido)propoxy)-2-propiolamidobenzoate] | 1.9 | 
C#CC(=O)Nc1ccc(CC(=O)O)cc1 [C12, 2-(4-propiolamidophenyl)acetic acid] | 92.1 | 
C#CC(=O)Nc1cc(OC)c(OCCCN(C(=O)C#C)C(=O)Cc2ccc(OC)cc2)cc1C(=O)OC [58o, methyl 4-methoxy-5-(3-(N-(2-(4-methoxyphenyl)acetyl)propiolamido)propoxy)-2-propiolamidobenzoate] | 2.1 | 
C#CC(=O)Nc1cc(OC)c(OCCCN(C(=O)C#C)C(=O)c2ccc(F)cc2)cc1C(=O)OC [58d, methyl 5-(3-(4-fluoro-N-propioloylbenzamido)propoxy)-4-methoxy-2-propiolamidobenzoate] | 2.4 | 
C#CC(=O)Nc1cc(OC)c(OCCCN(C(=O)C#C)C(=O)Cc2ccccc2C(F)(F)F)cc1C(=O)OC [58s, methyl 4-methoxy-2-propiolamido-5-(3-(N-(2-(2-(trifluoromethyl)phenyl)acetyl)propiolamido)propoxy)benzoate] |  | CC50 at 24 h [1, 2]: 64.9 µM; CC50 at 24 h ([1]; read-out: CC50 values): > 100 µM; EC50 (Min6 cells; [3]): 30 nM; insulin secretion in β-cells, in words (Min6 cells): could augment insulin secretion; EC50 (Min6 cells; [4]): 20 nM
CC#CC#C/C=C1\C=CC2(OC=CC2OC(=O)C=C(C)C)O1 (stereo not shown) [C6, (E)-7-(hexa-2,4-diyn-1-ylidene)-1,6-dioxaspiro[4,4]nona-2,8-dien-4-yl 3-methylbut-2-enoate] | 753 | 
C#CC(=O)OC(=O)c1cc(OCCC)c(OC)cc1N [compound 45, 2-amino-4-methoxy-5-propoxybenzoic propiolic anhydride] | 1 | 
C#CC(=O)OC(=O)c1cc(OC)c(OC)c(OC)c1N [compound 22, 2-amino-3,4,5-trimethoxybenzoic propiolic anhydride] | 4.3 | 
C#CC(=O)Nc1ccc(O)c(C(=O)O)c1 [C14, 2-hydroxy-5-propiolamidobenzoic acid] | 55.7 | 
CC#CCNc1ccc(NC(C)=O)cc1 [C8, N-(4-(but-2-yn-1-ylamino)phenyl)acetamide] | > 1000 | 
CC#CC#C/C=C1/C=CC(=O)O1 [C2, (Z)-5-(hexa-2,4-diyn-1-ylidene)furan-2(5H)-one] | 96.5 | 
C#CC(=O)Nc1cc(OCCC)c(OCCC)cc1C(=O)OC [compound 29, methyl 2-propiolamido-4,5-dipropoxybenzoate] | > 300 | 
C#CC(=O)Nc1cc(OC)c(OCCCN(C(=O)C#C)C(=O)c2ccccc2F)cc1C(=O)OC [58b, methyl 5-(3-(2-fluoro-N-propioloylbenzamido)propoxy)-4-methoxy-propiolamidobenzoate] | 4.2 | 
C#CC(=O)N(c1ccc(OC)cc1OC)C(C(=O)NCC(=O)OCC)c1cccs1 (stereo not shown) [C5, ethyl (2-(N-(2,4-dimethoxyphenyl)propiolamido)-2-(thiophen-2-yl)acetyl)glycinate] | 760 | 
C#CC(=O)Nc1cc(OC)c(OCCCN(C(=O)C#C)C(=O)c2cccc(OC)c2)cc1C(=O)OC [58g] | 3.3 | 

SMILES | IC50 (PDIA4) [µM] | other results
COc1cc(N)c(C(=O)O)cc1OC [compound 9, 2-amino-4,5-dimethoxybenzoic acid] | > 1000 | 
C#CC(=O)Nc1cc(OC)c(OCCCN(C(=O)C#C)C(=O)Cc2ccc(F)cc2)cc1C(=O)OC [58l] | 1.4 | 
O=C(Cc1ccccc1)OCC#CC#CCOC(=O)Cc1ccccc1 [C9, hexa-2,4-diyne-1,6-diyl bis(2-phenylacetate)] | > 1000 | 
C#CC(=O)Nc1c(C(=O)OC)cc(OC)c(OC)c1OC [compound 20, methyl 3,4,5-trimethoxy-2-propiolamidobenzoate] | 42.5 | 
C#CC(=O)Nc1cc(OC)c(OC)cc1C(=O)OCC[Si](C)(C)C [compound 7, 2-(trimethylsilyl)ethyl 4,5-dimethoxy-2-propiolamidobenzoate] | 78.7 | 
C#CC(=O)Nc1cc(OC)c(OCCCN(C(=O)C#C)C(=O)Cc2cccc(OC)c2)cc1C(=O)OC [58n, methyl 4-methoxy-5-(3-(N-(2-(3-methoxyphenyl)acetyl)propiolamido)propoxy)-2-propiolamidobenzoate] | 1.4 | 
C#CC(=O)Nc1cc(OCCC)c(OCCC)cc1C(=O)OCCC [compound 30, propyl 2-propiolamido-4,5-dipropoxybenzoate] | > 300 | 
CC#CC#CC#CC#CCCC(O)CO (stereo not shown) [CPD P2, cytopiloyne aglycone, reference compound] | 168 | 
C#CC(=O)OC(=O)c1cc(OC)c(OC)cc1N [compound 10, 2-amino-4,5-dimethoxybenzoic propiolic anhydride] | 1.6 | 
C#CC(=O)Nc1cc(OC)c(OCCCN2C(=O)c3ccccc3C2=O)cc1C(=O)OC [50b, methyl 5-(3-(1,3-dioxoisoindolin-2-yl)propoxy)-4-methoxy-2-propiolamidobenzoate] | 4.3 | 
COc1cc(C(=O)O)c(N)c(OC)c1OC [compound 21, 2-amino-3,4,5-trimethoxybenzoic acid] | > 1000 | 
OCC#CC(O)c1ccccc1 (stereo not shown) [C7, 1-phenylbut-2-yne-1,4-diol] | > 1000 | 
C#CC(=O)Nc1ccc(C(=O)NCC(=O)O)cc1 [C11, (4-propiolamidobenzoyl)glycine] | 27.6 | 
COC(=O)c1cc(OC)c(OC)cc1N [compound 3, methyl 2-amino-4,5-dimethoxybenzoate] | > 1000 | 
O=C(OCC#CC#CCOC(=O)c1ccccc1)c1ccccc1 [C10, hexa-2,4-diyne-1,6-diyl dibenzoate] | > 1000 | 
C#CC(=O)Nc1cc(OC)c(OCCCNC(=O)OC(C)(C)C)cc1C(=O)OC [compound 61, Methyl 5-(3-((tert-butoxycarbonyl)amino)propoxy)-4-methoxy-2-propiolamidobenzoate] | 4.7 | 
CCCOc1cc(C(=O)O)c(N)cc1OC [compound 44, 2-amino-4-methoxy-5-propoxybenzoic acid] | > 1000 | 
C#CC(=O)Nc1cc(OC)c(OCCC)cc1C(=O)OCCC [compound 43, propyl 4-methoxy-2-propiolamido-5-propoxybenzoate] | 431 | 
C#CC(=O)Nc1cc(OC)c(OCCCN(C(=O)C#C)C(=O)c2ccccc2)cc1C(=O)O [compound 40, 4-methoxy-2-propiolamido-5-(3-(N-propioloylbenzamido)propoxy)benzoic acid] | 3.9 | 
